# Source: ChEMBL document CHEMBL1127961, “Antineoplastic agents 315. Isolation and structure of the marine sponge cancer cell growth inhibitor phakellistatin 5” (1994)
# Values joined by “and” are separate entries in the source; they are usually repeats but may differ in a detail not shown here. Equal values may be shown once.
# Test system: NCI
# Test: Antineoplastic activity against NCI human leukemia cancer cell line
# Assay type: functional
structure (smiles),measurement,value
"CC[C@H](C)[C@@H]1NC(=O)C(C)NC(=O)[C@H](CCSC)NC(=O)C(C)NC(=O)[C@H](CC(N)=O)NC(=O)[C@H](Cc2ccccc2)NC(=O)C2CCCN2C1=O (single isomer, unassigned) [PHAKELLI STATIN 5]",GI50,3 µM and 0.6 µM
